Reference: patent publication US20120238557A1, “AMINOTHIAZINE OR AMINOOXAZINE DERIVATIVE HAVING AMINO LINKER” (SHIONOGI & CO., LTD., priority 2009, published 2012)
Read-outs that look alike come from different tables or passages of the source. Each block holds one compound with its values, some of them ahead of it.

How the values were obtained:
[1] = test system: Neuroblastoma SH-SY5Y cells (SH/APPwt) with human wild-type β-APP excessively expressed; assay: Measurement of β-amyloid (Aβ) production inhibitory effect in cell; assay type: cell-based
Method: Neuroblastoma SH-SY5Y cells (SH/APPwt) with human wild-type β-APP excessively expressed therein were prepared at 8×10^5 cells/mL, and 150 μl portions thereof were inoculated into each well of a 96-well culture plate (Falcon). The cells were cultured for 2 hours at 37° C. in a 5% gaseous carbon dioxide incubator. Then, a solution which had been preliminarily prepared by adding and suspending the test compound (DMSO (dimethyl sulfoxide) solution) so as to be 2 μl/50 μl medium was added to the cell sap. Namely, the final DMSO concentration was 1%, and the amount of the cell culture was 200 μl. After the incubation was performed for 24 hours from the addition of the test compound, 100 μl of the culture supernatant was collected from each fraction. The amount of the Aβ in each fraction was measured.
The Aβ amount was measured as follows. 10 μl of a homogeneous time resolved fluorescence (HTRF) measurement reagent (Amyloid β 1-40 peptide; IBA Molecular Holding, S. A.) and 10 μl of the culture supernatant were put into a 384-well half area microplate (black microplate, Costar) and mixed with each other, and then left standing overnight at 4° C. while the light was shielded. Then, the fluorescence intensity (excitation wavelength: 337 nm, measurement wavelength: 620 nm and 665 nm) was measured with a Wallac 1420 multilabel counter (Perkin Elmer life sciences).

hERG (IKr) = target: T1, hERG (IKr) (Homo sapiens, UniProt Q12809); assay: hERG test; assay type: cell-based; conditions: pH 7.4, HEK293 cells expressing hERG channel, whole cell patch clamp, concentration not given, read-out: % inhibition relative to the tail peak current (IKr)
T1 construct: expressed in transfected cells; host or cells: HEK293
Description: For the purpose of assessing risk of an electrocardiogram QT interval prolongation, effects on delayed rectifier K+ current (IKr), which plays an important role in the ventricular repolarization process, was studied using HEK293 cells expressing human ether-a-go-go related gene (hERG) channel.
After a cell was retained at a membrane potential of −80 mV by whole cell patch clamp method using an automated patch clamp system (PatchXpress 7000A, Axon Instruments Inc.), IKr induced by depolarization pulse stimulation at +40 mV for 2 seconds and, further, repolarization pulse stimulation at −50 mV for 2 seconds was recorded. […] From the recording IKr, an absolute value of the tail peak current was measured based on the current value at the resting membrane potential using an analysis software (DataXpress ver.1, Molecular Devices Corporation). Further, the % inhibition relative to the tail peak current before application of the test substance was calculated, and compared with the vehicle-applied group (0.1% dimethyl sulfoxide solution) to assess influence of the test substance on IKr.

[2] = target: T2, CYP3A4 enzyme expressed in Escherichia coli (Homo sapiens, UniProt P08684); assay: CYP3A4 fluorescent MBI test; assay type: in vitro ADME; conditions: pre-reaction time 0 or 30 minutes; substrate 7-BFC
T2 construct: host or cells: Escherichia coli
Method: The CYP3A4 fluorescent MBI test is a test of investigating enhancement of CYP3A4 inhibition of a compound by a metabolism reaction, and the test was performed using, as CYP3A4 enzyme expressed in Escherichia coli and employing, as an index, a reaction in which 7-benzyloxytrifluoromethylchmarin (7-BFC) is debenzylated by the CYP3A4 enzyme to produce a metabolite, 7-hydroxytrifluoromethylchmarin (HFC) emitting fluorescent light.
The reaction conditions were as follows: substrate, 5.6 μmol/L 7-BFC; pre-reaction time, 0 or 30 minutes; reaction time, 15 minutes; reaction temperature, 25° C. […]
An enzyme in a K-Pi buffer (pH 7.4) and a test drug solution as a pre-reaction solution were added to a 96-well plate at the composition of the pre-reaction, a part of it was transferred to another 96-well plate so that it was 1/10 diluted by a substrate in a K-Pi buffer, NADPH as a co-factor was added to initiate a reaction as an index (without preincubation) and, after a predetermined time of a reaction, acetonitrile/0.5 mol/L Tris(trishydroxyaminomethane)=4/1 was added to stop the reaction. […] For the plate on which each index reaction had been performed, a fluorescent value of 7-HFC which is a metabolite was measured with a fluorescent plate reader. […]

Solubility test = assay type: physicochemical; conditions: JP-I and JP-II media (2% DMSO stock added), aqueous buffer, kinetic from dmso stock, medium (JP-I, JP-II), turbidity after 4 hours
Method: A 2-fold dilution series (12 points) of a 10 mM solution of a test compound in DMSO was added to a medium (JP-I, JP-II) (2%), and solubility was assessed by 3 stages (High; >40 μM, Medium; 3-40 μM, Low; <3 μM) from a turbidity after 4 hours (crystallization information).

CYP2D6 = target: T3, CYP2D6 (Homo sapiens, UniProt P10635); assay: CYP inhibition test (CYP2D6); assay type: in vitro ADME; conditions: pooled human hepatic microsome; dextromethorphan O-demethylation
T3 construct: enzyme, pooled human hepatic microsome 0.2 mg protein/mL; from tissue; host or cells: pooled human hepatic microsomes
Method: (§1) Using commercially available pooled human hepatic microsome, and employing, as markers, 7-ethoxyresorufin O-deethylation (CYP1A2), tolbutamide methyl-hydroxylation (CYP2C9), mephenyloin 4′-hydroxylation (CYP2C19), dextromethorphan O-demethylation (CYP2D6), and terfenedine hydroxylation (CYP3A4) as typical substrate metabolism reactions of human main five CYP enzyme forms (CYP1A2, 2C9, 2C19, 2D6, 3A4), an inhibitory degree of each metabolite production amount by a test compound was assessed. […] After the centrifugation at 3000 rpm for 15 minutes, resorufin (CYP1A2 metabolite) in the supernatant was quantified by a fluorescent multilabel counter and tolbutamide hydroxide (CYP2C9 metabolite), mephenyloin 4′ hydroxide (CYP2C19 metabolite), dextrorphan (CYP2D6 metabolite), and terfenadine alcohol (CYP3A4 metabolite) were quantified by LC/MS/MS. Addition of only DMSO being a solvent dissolving a drug to a reaction system was adopted as a control (100%), remaining activity (%) was calculated at each concentration of a test drug added as the solution and IC50 was calculated by reverse presumption by a logistic model using a concentration and an inhibition rate.

CYP1A2 = target: T4, CYP1A2 (Homo sapiens, UniProt P05177); assay: CYP inhibition test (CYP1A2); assay type: in vitro ADME; conditions: pooled human hepatic microsome; 7-ethoxyresorufin O-deethylation
T4 construct: enzyme, pooled human hepatic microsome 0.2 mg protein/mL; from tissue; host or cells: pooled human hepatic microsomes
T4 sequence (P05177 1-516): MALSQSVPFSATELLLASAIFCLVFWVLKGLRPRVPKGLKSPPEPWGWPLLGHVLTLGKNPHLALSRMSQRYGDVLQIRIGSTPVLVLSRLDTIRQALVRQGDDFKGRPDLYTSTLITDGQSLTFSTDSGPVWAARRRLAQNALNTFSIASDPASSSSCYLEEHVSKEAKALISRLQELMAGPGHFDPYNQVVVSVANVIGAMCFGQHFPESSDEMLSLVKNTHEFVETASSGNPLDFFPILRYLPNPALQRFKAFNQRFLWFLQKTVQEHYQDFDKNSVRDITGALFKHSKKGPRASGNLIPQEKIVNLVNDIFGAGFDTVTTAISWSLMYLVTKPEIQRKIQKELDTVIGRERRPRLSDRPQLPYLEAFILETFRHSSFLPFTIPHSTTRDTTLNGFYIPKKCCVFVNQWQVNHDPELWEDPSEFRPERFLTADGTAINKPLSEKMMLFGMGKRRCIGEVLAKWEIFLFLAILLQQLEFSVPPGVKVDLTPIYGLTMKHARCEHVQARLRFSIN
Method: as §1

CYP3A4 = target: T5, CYP3A4 (Homo sapiens, UniProt P08684); assay: CYP inhibition test (CYP3A4); assay type: in vitro ADME; conditions: pooled human hepatic microsome; terfenedine hydroxylation
T5 construct: enzyme, pooled human hepatic microsome 0.2 mg protein/mL; from tissue; host or cells: pooled human hepatic microsomes
Method: as §1

CYP2C9 = target: T6, CYP2C9 (Homo sapiens, UniProt P11712); assay: CYP inhibition test (CYP2C9); assay type: in vitro ADME; conditions: pooled human hepatic microsome; tolbutamide methyl-hydroxylation
T6 construct: enzyme, pooled human hepatic microsome 0.2 mg protein/mL; from tissue; host or cells: pooled human hepatic microsomes
Method: as §1

CYP2C19 = target: T7, CYP2C19 (Homo sapiens, UniProt P33261); assay: CYP inhibition test (CYP2C19); assay type: in vitro ADME; conditions: pooled human hepatic microsome; mephenyloin 4′-hydroxylation
T7 construct: enzyme, pooled human hepatic microsome 0.2 mg protein/mL; from tissue; host or cells: pooled human hepatic microsomes
Method: as §1

[3] = Metabolism stability test; assay type: in vitro ADME; conditions: human liver microsomes 0.5 mg protein/mL, 1 mmol/L NADPH, 37° C., 30 minutes; 0 minute = 100%
Method: Using a commercially available pooled human hepatic microsomes, a test compound was reacted for a constant time, a remaining rate was calculated by comparing a reacted sample and an unreacted sample, thereby, a degree of metabolism in liver was assessed.
A reaction was performed (oxidative reaction) at 37° C. for 0 minute or 30 minutes in the presence of 1 mmol/L NADPH in 0.2 mL of a buffer (50 mmol/L Tris-HCl pH 7.4, 150 mmol/L potassium chloride, 10 mmol/L magnesium chloride) containing 0.5 mg protein/mL of human liver microsomes. After the reaction, 50 μL of the reaction solution was added to 100 μL of a methanol/acetonitrile=1/1 (v/v), mixed and centrifuged at 3000 rpm for 15 minutes. The test compound in the supernatant was quantified by LC/MS/MS, and a remaining amount of the test compound after the reaction was calculated, letting a compound amount at 0 minute reaction time to be 100%.

[4] = Aβ production in SH/APPwt cells, by the similar test, read-out: IC50 value
[5] = amount needed to inhibit Aβ production by 50%, SH/APPwt cells, 24 hours, Table 3, read-out: IC50

T7 sequence (P33261 whole entry): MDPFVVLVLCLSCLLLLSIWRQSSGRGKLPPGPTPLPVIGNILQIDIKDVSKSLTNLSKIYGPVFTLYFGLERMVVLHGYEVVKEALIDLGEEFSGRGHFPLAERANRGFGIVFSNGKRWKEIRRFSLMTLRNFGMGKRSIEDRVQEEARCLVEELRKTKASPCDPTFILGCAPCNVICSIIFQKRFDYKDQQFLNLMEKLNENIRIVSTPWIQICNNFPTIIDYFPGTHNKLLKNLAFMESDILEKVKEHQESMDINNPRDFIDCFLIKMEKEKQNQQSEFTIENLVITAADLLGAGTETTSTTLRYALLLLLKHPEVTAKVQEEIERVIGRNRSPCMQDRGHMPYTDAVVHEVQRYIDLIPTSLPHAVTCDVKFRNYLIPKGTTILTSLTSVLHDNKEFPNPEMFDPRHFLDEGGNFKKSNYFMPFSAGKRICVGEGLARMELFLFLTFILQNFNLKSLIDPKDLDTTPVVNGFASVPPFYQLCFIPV
T6 sequence (P11712 whole entry): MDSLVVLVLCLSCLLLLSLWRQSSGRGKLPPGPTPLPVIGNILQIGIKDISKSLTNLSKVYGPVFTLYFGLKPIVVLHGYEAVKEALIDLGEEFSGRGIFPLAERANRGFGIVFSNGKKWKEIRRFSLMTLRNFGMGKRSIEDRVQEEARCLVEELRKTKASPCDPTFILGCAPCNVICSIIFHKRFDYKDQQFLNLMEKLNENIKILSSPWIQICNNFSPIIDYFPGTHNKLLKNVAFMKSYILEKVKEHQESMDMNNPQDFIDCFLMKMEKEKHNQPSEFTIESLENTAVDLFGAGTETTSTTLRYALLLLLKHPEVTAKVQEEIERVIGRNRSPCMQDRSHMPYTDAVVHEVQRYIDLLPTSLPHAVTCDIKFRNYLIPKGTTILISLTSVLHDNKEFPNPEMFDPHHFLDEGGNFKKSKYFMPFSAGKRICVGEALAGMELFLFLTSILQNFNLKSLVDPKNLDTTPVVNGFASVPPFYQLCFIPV
T5 sequence (P08684 whole entry): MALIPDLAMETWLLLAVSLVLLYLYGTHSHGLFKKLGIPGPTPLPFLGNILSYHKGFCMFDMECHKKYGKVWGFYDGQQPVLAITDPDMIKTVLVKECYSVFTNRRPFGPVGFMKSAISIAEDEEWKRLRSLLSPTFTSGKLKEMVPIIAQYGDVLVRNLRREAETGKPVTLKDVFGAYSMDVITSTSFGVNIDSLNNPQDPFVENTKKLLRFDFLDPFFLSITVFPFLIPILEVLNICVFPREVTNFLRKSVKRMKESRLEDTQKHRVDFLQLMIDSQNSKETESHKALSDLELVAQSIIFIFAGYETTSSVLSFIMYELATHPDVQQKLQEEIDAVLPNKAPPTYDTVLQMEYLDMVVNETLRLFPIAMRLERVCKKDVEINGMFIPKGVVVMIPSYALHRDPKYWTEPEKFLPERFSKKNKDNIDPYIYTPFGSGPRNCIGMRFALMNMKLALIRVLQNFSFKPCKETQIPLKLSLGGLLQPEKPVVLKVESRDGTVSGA
T2 sequence (P08684 whole entry): as above
T1 sequence (Q12809 whole entry): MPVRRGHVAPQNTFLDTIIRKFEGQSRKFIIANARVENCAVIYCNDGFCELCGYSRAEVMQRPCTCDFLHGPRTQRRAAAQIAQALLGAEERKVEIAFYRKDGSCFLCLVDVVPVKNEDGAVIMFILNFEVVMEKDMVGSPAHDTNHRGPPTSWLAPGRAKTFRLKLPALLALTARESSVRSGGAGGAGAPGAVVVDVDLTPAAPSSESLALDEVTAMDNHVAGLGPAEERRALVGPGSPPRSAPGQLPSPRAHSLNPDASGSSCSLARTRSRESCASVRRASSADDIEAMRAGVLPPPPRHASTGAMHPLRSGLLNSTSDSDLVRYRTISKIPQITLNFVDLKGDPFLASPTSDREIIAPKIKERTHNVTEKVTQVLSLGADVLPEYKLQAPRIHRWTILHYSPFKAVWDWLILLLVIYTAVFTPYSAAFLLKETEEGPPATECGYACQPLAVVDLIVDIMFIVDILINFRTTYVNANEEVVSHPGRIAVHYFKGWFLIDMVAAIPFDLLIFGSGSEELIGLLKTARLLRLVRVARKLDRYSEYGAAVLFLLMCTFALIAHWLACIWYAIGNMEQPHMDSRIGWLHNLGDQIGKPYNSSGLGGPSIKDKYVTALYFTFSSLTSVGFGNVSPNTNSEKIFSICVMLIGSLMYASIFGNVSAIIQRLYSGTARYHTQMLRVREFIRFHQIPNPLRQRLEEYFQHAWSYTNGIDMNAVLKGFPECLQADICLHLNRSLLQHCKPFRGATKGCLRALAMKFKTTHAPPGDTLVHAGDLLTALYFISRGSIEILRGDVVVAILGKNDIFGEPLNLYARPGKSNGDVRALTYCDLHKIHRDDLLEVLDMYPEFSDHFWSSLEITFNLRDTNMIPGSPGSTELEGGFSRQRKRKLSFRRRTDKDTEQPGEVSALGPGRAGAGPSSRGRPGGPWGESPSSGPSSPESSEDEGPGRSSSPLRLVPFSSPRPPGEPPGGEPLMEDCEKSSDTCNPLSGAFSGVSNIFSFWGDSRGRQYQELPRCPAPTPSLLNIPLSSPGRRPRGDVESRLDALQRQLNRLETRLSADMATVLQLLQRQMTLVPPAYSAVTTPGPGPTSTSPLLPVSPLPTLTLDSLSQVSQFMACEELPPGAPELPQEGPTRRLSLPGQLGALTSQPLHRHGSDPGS
T3 sequence (P10635 whole entry): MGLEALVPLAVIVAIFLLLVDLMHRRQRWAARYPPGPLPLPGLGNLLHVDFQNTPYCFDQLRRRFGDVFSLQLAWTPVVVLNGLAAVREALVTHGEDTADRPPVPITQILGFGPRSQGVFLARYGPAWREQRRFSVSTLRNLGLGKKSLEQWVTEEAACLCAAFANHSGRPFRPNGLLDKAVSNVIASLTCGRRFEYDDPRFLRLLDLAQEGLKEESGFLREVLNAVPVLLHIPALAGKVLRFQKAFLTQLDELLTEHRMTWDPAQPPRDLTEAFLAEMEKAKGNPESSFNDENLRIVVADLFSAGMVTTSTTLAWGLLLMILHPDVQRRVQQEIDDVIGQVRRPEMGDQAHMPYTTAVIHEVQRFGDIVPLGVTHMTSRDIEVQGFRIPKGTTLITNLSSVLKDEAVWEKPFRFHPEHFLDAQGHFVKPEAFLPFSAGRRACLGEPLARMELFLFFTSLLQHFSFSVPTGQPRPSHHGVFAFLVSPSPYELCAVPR

IC50 [1, 4]: ≤ 3000 nM
Compound: C[C@@]1(c2cc(Nc3ccncn3)ccc2F)CCSC(N)=N1 [Compound I-1]
inhibition at 10 min (hERG (IKr)): 3.2%

Compound: C[C@@]1(c2cc(Nc3ncccc3C#N)ccc2F)CCOC(N)=N1 [Compound I-3]
CYP3A4 MBI: difference between IC50 values [2]: (−) (when the difference is 3 μM or less, this was defined as (−))

IC50 [1, 5]: 16 nM
Compound: COc1cccnc1Nc1ccc(F)c([C@]2(C)CCOC(N)=N2)c1 [Compound I-6]

solubility at 4 h (Solubility test): > 40 µM
Compound: C[C@@]1(c2cc(Nc3ncccc3C#N)ccc2F)C=CSC(N)=N1 [Compound I-9]

IC50 (CYP2D6): > 21000 nM
IC50 (CYP1A2): > 21000 nM
IC50 (CYP3A4): > 21000 nM
IC50 [1, 4]: ≤ 3000 nM
IC50 (CYP2C9): > 21000 nM
IC50 (CYP2C19): > 21000 nM
Compound: C[C@@]1(c2cc(Nc3ncccc3N)ccc2F)CCSC(N)=N1 [Compound I-10]

IC50 [1, 4]: ≤ 3000 nM
Compound: Cc1cccc(Nc2ccc(F)c([C@]3(C)CCSC(N)=N3)c2)n1 [Compound I-12]

IC50 [1, 4]: ≤ 3000 nM
Compound: C[C@@]1(c2cc(Nc3ncccc3CO)ccc2F)CCSC(N)=N1 [Compound I-16]

IC50 [1, 5]: 11 nM
Compound: COc1cccnc1Nc1ccc(F)c([C@]2(C)CCSC(N)=N2)c1 [Compound I-18]

IC50 [1, 4]: ≤ 3000 nM
Compound: COc1ccnc(Nc2ccc(F)c([C@]3(C)CCSC(N)=N3)c2)c1 [Compound I-19]

IC50 [1, 4]: ≤ 3000 nM
Compound: COc1ccc(Nc2ccc(F)c([C@]3(C)CCSC(N)=N3)c2)nc1 [Compound I-20]

IC50 [1, 4]: ≤ 3000 nM
Compound: COCc1ccc(Nc2ccc(F)c([C@]3(C)CCSC(N)=N3)c2)nc1 [Compound I-23]

IC50 [1, 4]: ≤ 3000 nM
Compound: CC(C)Oc1cccnc1Nc1ccc(F)c([C@]2(C)CCSC(N)=N2)c1 [Compound I-24]

IC50 [1, 4]: ≤ 3000 nM
Compound: CCCCOC(=O)c1cccnc1Nc1ccc(F)c([C@]2(C)CCOC(N)=N2)c1 [Compound I-25]

IC50 [1, 4]: ≤ 3000 nM
Compound: CC(C)OCc1ccc(Nc2ccc(F)c([C@]3(C)CCSC(N)=N3)c2)nc1 [Compound I-26]

remaining amount of the test compound after the reaction [3]: 95%
Compound: C[C@@]1(c2cccc(Nc3ncccc3C#N)c2)CCSC(N)=N1 [Compound I-33]
